Assay [1] has as its target T1, glycine transporter-1 (GlyT-1) (Homo sapiens, UniProt P48067).
T1 construct: JAR cells (ATCC#HTB-144), which endogenously express GlyT-1; host or cells: JAR human choriocarcinoma cells
T1 sequence (P48067 1-706): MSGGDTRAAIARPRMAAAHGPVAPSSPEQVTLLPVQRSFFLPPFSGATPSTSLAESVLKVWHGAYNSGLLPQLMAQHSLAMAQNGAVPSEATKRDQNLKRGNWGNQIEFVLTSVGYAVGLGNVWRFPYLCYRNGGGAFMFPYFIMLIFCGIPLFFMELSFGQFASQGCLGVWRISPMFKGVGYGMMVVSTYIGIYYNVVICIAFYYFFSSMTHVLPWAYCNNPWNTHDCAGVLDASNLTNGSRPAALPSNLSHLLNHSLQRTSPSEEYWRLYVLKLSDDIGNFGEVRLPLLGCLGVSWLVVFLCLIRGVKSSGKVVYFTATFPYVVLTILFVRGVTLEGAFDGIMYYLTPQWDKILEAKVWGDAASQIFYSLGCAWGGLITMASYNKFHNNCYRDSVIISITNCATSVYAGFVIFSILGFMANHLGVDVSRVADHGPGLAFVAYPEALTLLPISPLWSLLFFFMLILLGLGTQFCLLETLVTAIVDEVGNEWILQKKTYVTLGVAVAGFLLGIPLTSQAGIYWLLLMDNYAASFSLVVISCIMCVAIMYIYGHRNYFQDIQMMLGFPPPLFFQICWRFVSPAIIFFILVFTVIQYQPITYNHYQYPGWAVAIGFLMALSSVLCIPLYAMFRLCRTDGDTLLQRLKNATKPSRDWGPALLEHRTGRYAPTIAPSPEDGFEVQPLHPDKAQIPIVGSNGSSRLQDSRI
The assay is described as follows: [14C]glycine uptake assay in JAR cells endogenously expressing GlyT-1 (scintillation proximity). Format: cell-based. The note with it: JAR cells, [14C]glycine 5 μM, 3 hour incubation; read-out: GlyT-1 IC50. The essentials: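 Human choriocarcinoma JAR cells (endogenous GlyT-1) attached overnight, then pre-incubated 10 min at room temperature with compound in pH 7.4 Hepes uptake buffer containing 5 mM alanine and 0.75% DMSO. Uptake of 5 μM [14C]glycine over 3 h at 37 °C read by scintillation proximity; IC50 from four-parameter fit of nine-point curves.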
(Scintillation proximity formats need no separation of bound from free tracer.)

The target of assay [2] is T2, glycine transporter-2 (GlyT-2) (Homo sapiens, UniProt Q9Y345).
T2 construct: expressed in transfected cells
T2 sequence (Q9Y345 1-797): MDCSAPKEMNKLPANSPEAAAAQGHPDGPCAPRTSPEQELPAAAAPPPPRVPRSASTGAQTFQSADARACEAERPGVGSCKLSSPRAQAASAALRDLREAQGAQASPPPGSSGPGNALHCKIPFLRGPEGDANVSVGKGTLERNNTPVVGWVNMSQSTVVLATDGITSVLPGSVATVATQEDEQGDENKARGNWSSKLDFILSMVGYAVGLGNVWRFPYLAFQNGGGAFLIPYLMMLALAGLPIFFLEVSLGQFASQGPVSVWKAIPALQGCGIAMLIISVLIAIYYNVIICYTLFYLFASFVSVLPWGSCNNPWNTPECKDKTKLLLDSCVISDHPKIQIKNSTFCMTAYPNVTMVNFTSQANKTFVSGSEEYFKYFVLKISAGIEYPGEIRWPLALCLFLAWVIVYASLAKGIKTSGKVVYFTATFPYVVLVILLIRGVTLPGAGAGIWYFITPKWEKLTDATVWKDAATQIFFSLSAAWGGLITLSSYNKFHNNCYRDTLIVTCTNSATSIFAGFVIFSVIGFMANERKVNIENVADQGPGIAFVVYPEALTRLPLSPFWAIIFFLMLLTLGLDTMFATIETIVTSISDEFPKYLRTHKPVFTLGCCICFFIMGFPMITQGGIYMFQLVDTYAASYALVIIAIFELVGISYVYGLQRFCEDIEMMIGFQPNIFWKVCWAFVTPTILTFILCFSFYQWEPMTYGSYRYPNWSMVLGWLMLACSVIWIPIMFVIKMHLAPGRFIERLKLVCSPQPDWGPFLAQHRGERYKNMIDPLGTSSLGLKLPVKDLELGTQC
Description: [14C]glycine uptake assay in HEK-GlyT-2 transfected cells. Format: cell-based. The note with it: HEK-GlyT-2 cells.

For 21 compounds, IC50 results are on record in patent US9045445B2, “Glycine transporter-1 inhibitors, methods of making them, and uses thereof” (Albany Molecular Research, Inc., priority 2010, dated 2015).

pIC50: −log10 of the molar value. Where a name gives a salt, the structure may show the parent alone.

By pIC50 is commonly meant the IC50 on a negative log10 scale, so that one unit is a factor of ten. For the compound “4-Chloro-N-((1-(4- (propylsulfonyl)piperazin- 1-yl)cycloheptyl)methyl) benzamide Hydrochloride [compound 58]”, the pIC50 in assay [1] is 6.58; in assay [2], 4.28.
The corresponding values for `CCCS(=O)(=O)N1CCN(C2(CNC(=O)c3c(C)cc(C)cc3C)CCCCC2)CC1` [compound 36, 2,4,6-Trimethyl-N-((1-(4-(propylsulfonyl)piperazin-1-yl)cyclohexyl)methyl) benzamide Hydrochloride] are 7.41 and less than 4.12.
For `Cn1cc(S(=O)(=O)N2CCN(C3(CNC(=O)c4c(Cl)cccc4Cl)CCCC3)CC2)nn1` [compound 109, 2,6-Dichloro-N-((1-(4-(1-methyl-1H-l,2,3-triazol-4-ylsulfonyl)piperazin-1-yl)cyclopentyl)methyl) benzamide Hydrochloride], the pIC50 in assay [1] was 7.51; in assay [2], less than 4.12.
Take `O=C(NCC1(N2CCN(S(=O)(=O)CC3CC3)CC2)CCCCC1)c1c(F)cccc1F` [compound 81, N-((1-(4-(Cyclopropylmethyl-sulfonyl)piperazin-1-yl)cyclohexyl)methyl)-2,6-difluorobenzamide Hydrochloride]: the negative-log IC50 (pIC50) in assay [1] is 7.21; in assay [2] it was less than 4.12.
For `CCCS(=O)(=O)N1CCN(C2(CNC(=O)c3c(F)ccc(F)c3Cl)CCCCCC2)CC1` [compound 54, 2-Chloro-3,6-difluoro-N-((1-(4-(propylsulfonyl)piperazin-1-yl)cycloheptyl)methyl) benzamide Hydrochloride] the same measures were 7.70 and less than 4.12.
Regarding `CCCS(=O)(=O)N1CCN(C2(CNC(=O)c3c(F)cc(Cl)cc3F)CCC(F)(F)CC2)CC1` [compound 259, 4-Chloro-N-((4,4-difluoro-1-(4-(propylsulfonyl)piperazin-1-yl)cyclohexyl)methyl)-2,6-difluorobenzamide Hydrochloride], the results for the pIC50 in assay [1] and in assay [2] were 7.60 and less than 4.12, respectively.
The corresponding values for `Cn1cc(S(=O)(=O)N2CCN(C3(CNC(=O)c4c(F)cc(F)cc4F)CCC(F)(F)CC3)CC2)nn1` [compound 234, N-((4,4-Difluoro-1-(4-(1-methyl-1H-1,2,3-triazol-4-ylsulfonyl)piperazin-1-yl)cyclohexyl)methyl)-2,4,6-trifluorobenzamide Hydrochloride] are 8.40 and less than 4.12.
For `CCCS(=O)(=O)N1CCN(C2(CNC(=O)c3ccc(C(F)(F)F)cc3Cl)CCC(F)(F)CC2)C(C)C1` (stereo not drawn) [compound 257, 2-Chloro-N-((4,4-difluoro-1-(2-methyl-4-(propylsulfonyl)piperazin-1-yl)cyclohexyl)methyl)-4-(trifluoromethyl) benzamide Hydrochloride] the same measures were 7.74 and less than 4.12.
For `CCCS(=O)(=O)N1CCN(C2(CNC(=O)c3ccccc3Cl)CCCCC2)CC1` [compound 8, 2-Chloro-N-((1-(4-(propylsulfonyl)piperazin-1-yl)cyclohexyl)methyl) benzamide Hydrochloride] the same measures were 7.44 and less than 4.12.
For `CCCS(=O)(=O)N1CCN(C2(CNC(=O)c3c(Cl)cccc3Cl)CCC(F)(F)CC2)CC1` [compound 135, 2,6-Dichloro-N-((4,4-difluoro-1-(4-(propylsulfonyl)piperazin-1-yl)cyclohexyl)methyl) benzamide Hydrochloride], the pIC50 in assay [1] was 7.38; in assay [2], less than 4.12.
For the compound `CCCS(=O)(=O)N1CCN(C2(CNC(=O)c3cccc(OC)c3Cl)CCCCCC2)CC1` [compound 65, 2-Chloro-3-methoxy-N-((1-(4-(propylsulfonyl)piperazin-1-yl)cycloheptyl)methyl) benzamide Hydrochloride], the pIC50 in assay [1] is 6.69; in assay [2], less than 4.12.
For `CCCS(=O)(=O)N1CCN(C2(CNC(=O)c3ccc(F)cc3F)CCCCC2)CC1` [compound 39, 2,4-Difluoro-N-((1-(4-(propylsulfonyl)piperazin-1-yl)cyclohexyl)methyl) benzamide Hydrochloride], the values for the pIC50 in assay [1] and in assay [2] were 6.88 and not above 4.12, respectively.
The corresponding values for `Cn1cc(S(=O)(=O)N2CCN(C3(CNC(=O)c4ccc(F)cc4F)CCCC3)CC2)nn1` [compound 111, 2,4-Difluoro-N-((1-(4-(1-methyl-1H-1,2,3-triazol-4-ylsulfonyl)piperazin-1-yl)cyclopentyl)methyl) benzamide Hydrochloride] are 6.62 and less than 4.12.
For `CCCS(=O)(=O)N1CCN(C2(CNC(=O)c3c(N)cccc3Cl)CCCCCC2)CC1` [compound 56, 2-Amino-6-chloro-N-((1-(4-(propylsulfonyl)piperazin-1-yl)cycloheptyl)methyl) benzamide Hydrochloride] the same measures were 8.22 and 4.41.
Take `CCCS(=O)(=O)N1CCN(C2(CNC(=O)c3ccc(Cl)cc3Cl)CCCOC2)CC1` (stereo not drawn) [compound 125, 2,4-Dichloro-N-((3-(4-(propylsulfonyl)piperazin-1-yl)tetrahydro-2H-pyran-3-yl)methyl)benzamide Hydrochloride]: the negative-log IC50 (pIC50) in assay [1] was 6.75; in assay [2], less than 4.12.
In the case of `Cc1cccc(F)c1C(=O)NCC1(N2CCN(S(=O)(=O)CC3CC3)CC2)CCCCC1` [compound 80, N-((1-(4-(Cyclopropylmethyl-sulfonyl)piperazin-1-yl)cyclohexyl)methyl)-2-fluoro-6-methylbenzamide Hydrochloride], the pIC50 was 7.54 in assay [1] and less than 4.12 in assay [2].
The corresponding values for `CCCS(=O)(=O)N1CCN(C2(CNC(=O)c3c(F)cccc3OC)CCOCC2)CC1` [compound 123, 2-Fluoro-6-methoxy-N-((4-(4-(propyl-sulfonyl)piperazin-1-yl)tetrahydro-2H-pyran-4-yl)methyl)benzamide Hydrochloride] are 6.38 and less than 4.12.
Turning to `CCCS(=O)(=O)N1CCN(C2(CNC(=O)c3ccc(OC)cc3)CCCCC2)CC1` [compound 23, 4-Methoxy-N-((1-(4-(propylsulfonyl)piperazin-1-yl)cyclohexyl)methyl) benzamide Hydrochloride], the pIC50 was 5.94 in assay [1] and 4.21 in assay [2].
With `COc1cc(F)cc(C)c1C(=O)NCC1(N2CCN(S(=O)(=O)CC3CC3)CC2)CCCCC1` [compound 79, N-((1-(4-(Cyclopropylmethyl-sulfonyl)piperazin-1-yl)cyclohexyl)methyl)-4-fluoro-2-methoxy-6-methylbenzamide Hydrochloride], the pIC50 in assay [1] is 7.54; in assay [2], less than 4.12.
The corresponding values for `CCCS(=O)(=O)N1CCN(C2(CNC(=O)c3ccc(Cl)c(Cl)c3)CCCCCC2)CC1` [compound 68, 3,4-Dichloro-N-((1-(4-(propylsulfonyl)piperazin-1-yl)cycloheptyl)methyl) benzamide Hydrochloride] are 6.76 and 5.50.
The corresponding values for `Cn1cnc(S(=O)(=O)N2CCN(C3(CNC(=O)c4c(Cl)cccc4Cl)CCCCCC3)CC2)c1` [compound 106, 2,6-Dichloro-N-((1-(4-(1-methyl-1H-imidazol-4-ylsulfonyl)piperazin-1-yl)cycloheptyl)methyl) benzamide Hydrochloride] are 8.30 and less than 4.12.
